Test system: 598228-144-R-J1-PDC complex spheroid viability
Assay: Anticancer human tumor 598228-144-R-J1-PDC patient-derived serous endometrial adenocarcinoma cell line growth inhibition [GQUAD]
Details: for IC50: curve of first compound; for viability, T/C: stronger effect = lower value
Source text: DNA G-quadruplex Stabilizer Agents in Combinations in Complex Spheroids
A high-throughput screen of multi-cell type tumor spheroids was designed to identify active combinations of DNA G-quadruplex stabilizer agents and targeted small molecules. Complex spheroids include a stromal component modeled by human endothelial cells (HUVEC) and fibroblasts modeled by human mesenchymal stem cells (MSCs). The concentration ranges selected for each drug and investigational agent were based upon clinically achievable concentrations if the clinical Cmax of the agent was known.
Compounds. The drugs and investigational agents: pidnarulex (CX-5461; NSC782164), APTO-253 (NSC789042), BRACO-19 (NSC847499), peposertib (NSC802822), ceralasertib (NSC780249), elimusertib (NSC800525), camonsertib (NSC841442), AZD-1390 (NSC803789), olaparib (NSC753686), talazoparib (NSC767125), ART-558 (NSC835418), sotorasib (NSC818433), MRTX-1133 (NSC836407), SN-38 (NSC673596), topotecan (NSC609699), etoposide (NSC141540), doxorubicin (NSC123127), gemcitabine (NSC613327), 5-fluorouracil (NSC19893), paclitaxel (NSC125973), vemurafenib (NSC761431), panobinostat (NSC761190), R-306465 (JNJ-16241199; NSC773264), adavosertib (NSC754352), TP-3654 (NSC805149), carboplatin (NSC241240), KSQ-4279 (NSC840948), and staurosporine (NSC755774) were obtained from the National Cancer Institute (NCI) Developmental Therapeutics Program Chemical Repository (34). The FDA-approved anticancer drug set is available from the NCI Developmental Therapeutics Program. […] The stock solutions were prepared in dimethyl sulfoxide (DMSO, Sigma-Aldrich, St. Louis, MO, cat. D2650) at 800-fold the tested concentration and stored at -70 degrees C prior to their use. All drugs and investigational agents were tested over a range starting from a high concentration at or near the clinical Cmax and decreasing in half-log increments. If the clinical Cmax for an agent had not been determined, the highest concentration tested was 10 microM.
2.3 Cell Culture. All cells were maintained in an incubator at 37 degrees C and 5% CO2 with 95% humidity. The PDC lines were cultured according to standard operating procedures established by the NCI PDMR. All PDCs were thawed and cultured in Matrigel-coated flasks prepared with a working solution of 1X Ham's F-12 nutrient mix, without supplementation (Invitrogen, cat. 11765054), 100 U/mL penicillin-streptomycin (Invitrogen, cat. 15140122), and 2.5% Matrigel (Corning Inc., cat. 354248) for the first three passages. The 857933-349-R-J2-PDC line was cultured in 6C/Colon 1B media, which includes advanced DMEM/F-12 (Thermo Fisher Scientific, cat. 12634028), 10 mM HEPES (Thermo Fisher Scientific, cat. 15630080), 1X GlutaMAX supplement (Thermo Fisher Scientific, cat. 35050061), 0.1 mg/mL primocin (InvivoGen, cat. ant-pm-2), 10% defined fetal bovine serum, heat inactivated (HyClone Laboratories Inc., cat. SH30070.03HI), 50% L-WRN conditioned media (ATCC, cat. CRL-3276), 1.25 mM N-Acetyl-L-cysteine (Sigma-Aldrich, cat. A9165), 10 mM nicotinamide (Sigma-Aldrich, cat. N0636), 1X B-27 supplement (Thermo Fisher Scientific, cat. 17504044), 1X N-2 supplement (Thermo Fisher Scientific, cat. 17502048), 10 microM Y-27632 dihydrochloride (Tocris Bioscience, cat. 1254), and 50 ng/mL human EGF recombinant protein (Thermo Fisher Scientific, cat. PHG0311). The 485176-168-R4-J1-PDC line was cultured in Panc media, which includes all 6C/Colon 1B media components plus 100 ng/mL human FGF-10 (Thermo Fisher Scientific, cat. 100-26), 500 nM SB-431542 (Selleckchem, cat. S1067), and gastrin (Tocris, cat. 3006).
[…]

[1] = second compound 0.0316 µM, first compound 0.0316 µM
[2] = second compound 0.0316 µM, first compound 0.316 µM
[3] = second compound 0.1 µM, first compound 0.0316 µM
[4] = second compound 0.1 µM, first compound 0.316 µM
[5] = second compound 0.316 µM, first compound 0.0316 µM
[6] = second compound 0.316 µM, first compound 0.316 µM
[7] = second compound 1 µM, first compound 0.0316 µM
[8] = second compound 1 µM, first compound 0.316 µM
[9] = second compound 3.16 µM, first compound 0.0316 µM
[10] = second compound 3.16 µM, first compound 0.316 µM
[11] = second compound 10 µM, first compound 0.0316 µM
[12] = second compound 10 µM, first compound 0.316 µM
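Note: spheroids exposed to the agents for one week before reading.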
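Throughout, for viability, T/C: percent of vehicle DMSO control viability so 100% = untreated growth.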

With `Nc1ccn(C2OC(CO)C(O)C2(F)F)c(=O)n1` (centres undefined) + Cc1[nH]c2ccc(F)cc2c1-c1nc2c3cccnc3c3ncccc3c2[nH]1 the IC50 (second compound 0.0316 µM) was 0.439 µM, the IC50 (second compound 0.1 µM) was 0.136 µM and the IC50 (second compound 0.316 µM) was 0.135 µM. For the same molecule, the IC50 (second compound 1 µM) was 0.0448 µM, the IC50 (second compound 3.16 µM) was under 0.0316 µM and the IC50 (second compound 10 µM) was under 0.0316 µM. The viability, T/C [1] was 64.6%, the viability, T/C (second compound 0.0316 µM, first compound 0.1 µM) was 54.6% and the viability, T/C [2] was 52.1%. The viability, T/C (second compound 0.0316 µM, first compound 1 µM) was 47.9%, the viability, T/C (second compound 0.0316 µM, first compound 3.16 µM) was 43.9% and the viability, T/C (second compound 0.0316 µM, first compound 10 µM) was 41%. For the same molecule, the viability, T/C [3] was 54.8%, the viability, T/C (second compound 0.1 µM, first compound 0.1 µM) was 57.5% and the viability, T/C [4] was 45.3%. It also gave a viability, T/C (second compound 0.1 µM, first compound 1 µM) of 40%, a viability, T/C (second compound 0.1 µM, first compound 3.16 µM) of 39.9% and a viability, T/C (second compound 0.1 µM, first compound 10 µM) of 44.9%. It also gave a viability, T/C [5] of 60.7%, a viability, T/C (second compound 0.316 µM, first compound 0.1 µM) of 52.3% and a viability, T/C [6] of 48.3%. It also gave a viability, T/C (second compound 0.316 µM, first compound 1 µM) of 39.9%, a viability, T/C (second compound 0.316 µM, first compound 3.16 µM) of 43.6% and a viability, T/C (second compound 0.316 µM, first compound 10 µM) of 49.7%. It also gave a viability, T/C [7] of 53.2%, a viability, T/C (second compound 1 µM, first compound 0.1 µM) of 49.1% and a viability, T/C [8] of 46.2%. The viability, T/C (second compound 1 µM, first compound 1 µM) was 36.3%, the viability, T/C (second compound 1 µM, first compound 3.16 µM) was 50.4% and the viability, T/C (second compound 1 µM, first compound 10 µM) was 41.9%. The viability, T/C [9] was 36.3%, the viability, T/C (second compound 3.16 µM, first compound 0.1 µM) was 36.7% and the viability, T/C [10] was 38.5%. It also gave a viability, T/C (second compound 3.16 µM, first compound 1 µM) of 37.9%, a viability, T/C (second compound 3.16 µM, first compound 3.16 µM) of 32.4% and a viability, T/C (second compound 3.16 µM, first compound 10 µM) of 44.5%. The viability, T/C [11] was 51.6%, the viability, T/C (second compound 10 µM, first compound 0.1 µM) was 37.6% and the viability, T/C [12] was 37.8%. For the same molecule, the viability, T/C (second compound 10 µM, first compound 1 µM) was 47.5%, the viability, T/C (second compound 10 µM, first compound 3.16 µM) was 35.7% and the viability, T/C (second compound 10 µM, first compound 10 µM) was 32%.
`CCc1c2c(nc3ccc(O)cc13)-c1cc3c(c(=O)n1C2)COC(=O)[C@]3(O)CC` + Cc1[nH]c2ccc(F)cc2c1-c1nc2c3cccnc3c3ncccc3c2[nH]1 showed an IC50 (second compound 0.0316 µM) of 0.021 µM, an IC50 (second compound 0.1 µM) of 0.0139 µM and an IC50 (second compound 0.316 µM) of 0.0372 µM. It also gave an IC50 (second compound 1 µM) of 0.00257 µM, an IC50 (second compound 3.16 µM) of under 0.000999 µM and an IC50 (second compound 10 µM) of 0.00209 µM. The viability, T/C (second compound 0.0316 µM, first compound 0.000999 µM) was 74.7%, the viability, T/C (second compound 0.0316 µM, first compound 0.00316 µM) was 73.5% and the viability, T/C (second compound 0.0316 µM, first compound 0.00999 µM) was 53.8%. For the same molecule, the viability, T/C [1] was 42.9%, the viability, T/C (second compound 0.0316 µM, first compound 0.0999 µM) was 37.9% and the viability, T/C [2] was 13.8%. It also gave a viability, T/C (second compound 0.1 µM, first compound 0.000999 µM) of 67%, a viability, T/C (second compound 0.1 µM, first compound 0.00316 µM) of 67.6% and a viability, T/C (second compound 0.1 µM, first compound 0.00999 µM) of 55.4%. It also gave a viability, T/C [3] of 34.9%, a viability, T/C (second compound 0.1 µM, first compound 0.0999 µM) of 31.3% and a viability, T/C [4] of 19.5%. For the same molecule, the viability, T/C (second compound 0.316 µM, first compound 0.000999 µM) was 75.9%, the viability, T/C (second compound 0.316 µM, first compound 0.00316 µM) was 62.7% and the viability, T/C (second compound 0.316 µM, first compound 0.00999 µM) was 66.3%. The viability, T/C [5] was 53.4%, the viability, T/C (second compound 0.316 µM, first compound 0.0999 µM) was 34.3% and the viability, T/C [6] was 21.4%. It also gave a viability, T/C (second compound 1 µM, first compound 0.000999 µM) of 55%, a viability, T/C (second compound 1 µM, first compound 0.00316 µM) of 47.3% and a viability, T/C (second compound 1 µM, first compound 0.00999 µM) of 43%. The viability, T/C [7] was 37.9%, the viability, T/C (second compound 1 µM, first compound 0.0999 µM) was 27.8% and the viability, T/C [8] was 17.8%. The viability, T/C (second compound 3.16 µM, first compound 0.000999 µM) was 40.6%, the viability, T/C (second compound 3.16 µM, first compound 0.00316 µM) was 36.1% and the viability, T/C (second compound 3.16 µM, first compound 0.00999 µM) was 29.7%. The viability, T/C [9] was 29.2%, the viability, T/C (second compound 3.16 µM, first compound 0.0999 µM) was 13.1% and the viability, T/C [10] was 8.4%. It also gave a viability, T/C (second compound 10 µM, first compound 0.000999 µM) of 57%, a viability, T/C (second compound 10 µM, first compound 0.00316 µM) of 45.1% and a viability, T/C (second compound 10 µM, first compound 0.00999 µM) of 38.8%. For the same molecule, the viability, T/C [11] was 29.7%, the viability, T/C (second compound 10 µM, first compound 0.0999 µM) was 24.1% and the viability, T/C [12] was 20.4%.
